{"source": "patent US9533019B1", "about": "“Calotropis procera extracts as anti-ulcerative colitis agents” (KING SAUD UNIVERSITY, priority 2016, dated 2017)", "tested_on": "acetic acid-induced colitis in male Wistar rats", "experiment": "Acetic acid-induced ulcerative colitis", "format": "in vivo", "description": "Male Wistar rats were divided into 9 experimental groups, each of 6 animals. Rats of groups 1 and 2 received the vehicle (5 mL/kg) and served as normal control and control colitis groups, and Group 3 was administered dexamethasone (0.1 mg/kg) and served as Reference Drug group. […] All medications were administered orally, once daily for 5 consecutive days after colitis induction. The first doses were administrated in all groups one hour after colitis induction. The colonic lesions were assessed by weighing the colon specimens and the wet weight/length ratio was calculated for all the rats. The specimens were examined under a dissecting microscope and the lesion scores were quantified by scoring system (0-5). Ulcer area was measured using a plane glass square. Each cell on the glass square was 1 mm^2 in area, and the number of cells was counted and the ulcer area was determined for each colon.\nThe Ulcer index (UI) was measured by summing the lesion score and the ulcer area for each colon specimen. The curative ratio was determined according to formula (1) below: […]\nThe inflammatory changes of the intestinal tract were associated with a significant increase of wet weight/length of the colon specimens as an indicator of inflammation. […] The colitis was induced by slowly infusion of 2 mL (4%, v/v) acetic acid in saline into the colon through the catheter.", "key": {"[1]": {"details": "50 mg/kg orally once daily for 5 days after colitis induction, n=6"}}, "note": "Marks after values point to notes of the source that are not given here."}
{"smiles": "C[C@]12C=CC(=O)C=C1CC[C@@H]1[C@@H]2[C@@H](O)C[C@@]2(C)[C@H]1CC[C@]2(O)C(=O)CO", "note": "[Prednisolone]", "values": [{"measurement": "percent protection of control colitis", "setting": "50 mg/kg orally for 5 days", "result": 54.9, "unit": "%"}, {"measurement": "Lesion score (0-5)", "setting": "[1]", "result": "2.22 ± 0.12"}, {"measurement": "Ulcer area", "setting": "[1]", "result": "2.53 ± 0.15* cm^2"}, {"measurement": "Ulcer index", "setting": "[1]", "result": "4.65 ± 0.27"}, {"measurement": "Wet W/L", "setting": "colon wet weight/length, 50 mg/kg orally once daily for 5 days after colitis induction, n=6", "result": "0.46 ± 0.02", "unit": "g/cm"}]}
